Results taken from US7671035B2, “Epidermal growth factor receptor antisense oligonucleotides” (Idera Pharmaceuticals, Inc., priority 2001, dated 2010).
In the oligonucleotide strings, read from the 5' end, every base follows the letter of its sugar. An asterisk marks phosphorothioate; unmarked linkages are phosphodiester. Other units and linkages are bracketed, terminal groups are in braces. A string of capitals states the bases alone. d = 2'-deoxy (DNA)

Experiments:
GEO cells = assay: Soft agar growth of GEO cells, antisense MBO in combination with cytotoxic drugs; type: cell-based, human; conditions: for growth inhibition: soft agar; for growth inhibitory effect in combination with cytotoxic drugs: GEO cells on soft agar, all doses, with each of cisplatin, doxorubicin, paclitaxel, topotecan (FIGS. 5, 6)
Procedure: FIG. 5A is a graphic representation showing the growth inhibitory effects of AS23 (0.01 μM, […], 0.1 μM) in combination with cisplatin on the growth of CEO cells in soft agar. Cells were treated with the indicated concentrations of cytotoxic drug on day 1, followed by the indicated concentrations of EGFR-AS oligonucleotide on each day from day 2 to day 4. Colonies were counted after 10 to 14 days. Data represent the average (±standard deviation) of three different experiments, each performed in triplicate.
The invention also provides a method of potentiating the growth inhibitory effect of a cytotoxin on a cancer cell. In this method, the cell is contacted with an oligonucleotide of the invention, as well as the cytotoxin. For example, the growth inhibitory effects of AS23 and AS24 on cancer cells were examined in combination with four different cytotoxins: cisplatin, doxorubicin, paclitaxel, and topotecan. […] When lower doses of these agents were used, the antiproliferative effect was clearly cooperative. […] The cooperativity quotient of this treatment, defined as the ratio between the actual growth inhibition obtained with cisplatin followed by AS23 MBO and the sum of the growth inhibition achieved by each agent, was approximately 1.8.
Cells (10^4 cells/well) were suspended in 0.5 ml of 0.3% Difco Noble agar (Difco, Detroit, Mich.) supplemented with complete culture medium. This suspension was layered over 0.5 ml of 0.8% agar-medium base layer in 24 multiwell cluster dishes (Becton Dickinson, Lincoln Park, N.J.) and treated on days 1, 2 and 3 with different concentrations of the various EGFR-AS oligonucleotides alone and/or in combination on day 1 with the indicated concentrations of cytotoxic drugs. After 10 to 14 days, cells were stained with nitro blue tetrazolium (Sigma, St. Louis, Mo.) and colonies larger than 0.05 mm were counted.

[1] = system: human GEO colon cancer cells; assay: Soft agar (anchorage-independent) colony growth of GEO cells; type: cell-based; conditions: read-out: IC50, inhibition of GEO cell soft agar growth
Procedure: Antisense oligonucleotides having SEQ ID NOS: 1-10 were designed and evaluated for the ability to inhibit the anchorage-independent growth of human GEO colon cancer cells. Human cancer cells useful for this study are GEO cells.
The IC50 determined by treatment with these antisense oligonucleotides varied between 0.1 and 0.7 μM. Based on the nucleotide sequence and on the growth inhibitory activity, two sequences (corresponding to AS14 (SEQ 10 NO: 14) and AS22 (SEQ ID NO: 22)) were modified in their backbone structure as hybrid DNA-RNA 20-mer oligonucleotides (AS23 (SEQ ID NO: 23)) and AS24 (SEQ ID NO: 24)) and further characterized for their biological characteristics. GEO cells were grown as colonies in soft agar and treated with different concentrations of the indicated antisense oligonucleotides. IC50 values were obtained from three different experiments, each performed in triplicate.
GEO human colon cancer, OVCAR-3 human ovarian cancer, and ZR-75-1 human breast cancer cell lines were obtained from the American Type Culture Collection, Manassas, Va. (OVCAR, ATCC No. HTB-161; ZR-75-1, ATCC No. CRL-1500). […]
Cells (10^4 cells/well) were suspended in 0.5 ml of 0.3% Difco Noble agar (Difco, Detroit, Mich.) supplemented with complete culture medium. […] After 10 to 14 days, cells were stained with nitro blue tetrazolium (Sigma, St. Louis, Mo.) and colonies larger than 0.05 mm were counted.

EGFR = assay: Western blot of EGFR expression in GEO cells; type: cell-based, human; conditions: GEO cells treated three days at 0.1 μM or 0.5 μM, compared to scramble oligonucleotide-treated cells (FIG. 1B)
Procedure: FIG. 1A is a representation of a Western blot showing EGFR expression in GEO cancer cells following treatment with EGFR antisense oligonucleotides. GEO cells were treated for three days with 0.5 μM of the indicated oligonucleotides (AS 5, 6, 7, 8, 9, 10), 0.5 μM, or with 0.5 μM scramble sequence oligonucleotides. Equal amounts (50 μg/lane) of protein extracts were resolved by a 7.5% SDS-PAGE and probed with an anti-human EGFR monoclonal antibody. Immunoreactive proteins were visualized by enhanced chemiluminescence.
FIG. 1B is a representation of a Western blot showing EGFR expression in CEO cells following treatment with EGFR antisense oligonucleotides. GEO cells were treated for three days with AS23 and AS24 oligonucleotides (0.1 or 0.5 μM), respectively; or with 0.5 μM of scramble sequence oligonucleotides. Equal amounts (50 μg/lane) of protein extracts were resolved by a 7.5% SDS-PAGE and probed with an anti-human EGFR monoclonal antibody. Immunoreactive proteins were visualized by enhanced chemiluminescence. […]

p27 [2] = assay: Western blot of p27 expression in GEO cells; type: cell-based, human; conditions: three days, 0.1 and 0.5 μM (FIG. 3A)
Procedure: (§1) Equal amounts (50 μg/lane) of protein extracts were resolved by a 12% SDS-PAGE and probed with an anti-human p27 MAb. Immunoreactive proteins were visualized by enhanced chemiluminescence.
(§2) The ability of EGFR antisense treatment to induce p27 was therefore examined.
(§3) 50 μg total cell lysates from GEO cells, which were treated each day for three days with the indicated concentrations of antisense oligonucleotides, were fractionated through 7.5% or 12% sodium dodecyl sulfate-polyacrylamide gels, transferred to nitrocellulose filters and incubated with an anti-human EGFR mouse MAb or with an anti-human p27 mouse MAb (both antibodies were purchased from Transduction Laboratories, Lexington, Ky.), respectively, followed by horseradish-peroxidase antiserum (Bio-Rad Laboratories, Milano, Italy). Immunoreactive proteins were visualized by enhanced chemiluminescence (Amersham International, England).

p27 [3] = assay: Western blot of p27 expression in ZR-75-1 cells; type: cell-based, human; conditions: three days, 0.1 and 0.5 μM (FIG. 3B)
Procedure: as §1, §2, §3

| Compound | IC50 [1] [nM] | EGFR protein expression (Western blot) (EGFR) | growth inhibitory effect in combination with cytotoxic drugs (GEO cells) | also measured |
| --- | --- | --- | --- | --- |
| N.N.[Cl][Pt][Cl] [cisplatin, CIS-diamminedichloroplatinum, reference compound] | – | – | – | growth inhibition (GEO cells; GEO cells, 0.25 μg/ml cisplatin alone): approximately 20% |
| ACACTGCCTGAGAGTTGCCC (antisense dA*dC*dA*dC*dT*dG*dC*dC*dT*dG*dA*dG*dA*dG*dT*dT*dG*dC*dC*dC) [AS1] | ~3500 | – | – | – |
| CTCTTCTTGACAGTCTGATG (antisense dC*dT*dC*dT*dT*dC*dT*dT*dG*dA*dC*dA*dG*dT*dC*dT*dG*dA*dT*dG) [AS10] | ~500 | – | – | – |
| UAUGATCTGTCACAGCUUGA (phosphorothioate linkages, 2'-O-methyl ribonucleosides, further chemistry not given here) [AS23] | – | almost complete inhibition | supra-additive growth inhibitory effect | p27 expression (Western blot) (p27 [2]): dose-dependent increase in p27 expression; p27 expression (Western blot) (p27 [3]): dose-dependent increase in p27 expression; growth inhibition (GEO cells; GEO cells, 0.05 μM AS23 MBO alone): approximately 20%; inhibition of colony formation in soft agar (GEO cells; GEO cells, combined treatment 0.25 μg/ml cisplatin followed by 0.05 μM AS23 MBO (FIG. 5A)): 70%; cooperativity quotient (GEO cells; ratio of growth inhibition with cisplatin followed by AS23 MBO to the sum of growth inhibition by each agent, GEO cells): approximately 1.8 |
| UGCTAGGTTTCCTCCCUUUC (phosphorothioate linkages, 2'-O-methyl ribonucleosides, further chemistry not given here) [AS24] | – | almost complete inhibition | supra-additive growth inhibitory effect | – |
